Measured values: patent US20050090471A1, “Inhibitors of cyclin-dependent kinases, compositions and uses related thereto” (GPC Biotech, Inc, priority 2001, published 2005)

How the values were obtained:
[1] = test system: NCI panel of 60 cell lines; test: NCI panel of human tumor cell lines (SRB assay), MG-MID; assay type: cell-based; conditions: 48 hours incubation with compound
Text: (§1) The evaluation of compounds at the National Cancer Institute in their panel of 60 cell lines provides a wealth of information regarding efficacy in a wide range of tumor types and genetic backgrounds. Included within this panel are cell lines derived from leukemia, melanoma and cancers of the lung, colon, brain, ovary, breast, prostate and kidney. Use of this panel provides a measure of the efficacy of compounds in cells with alterations in many genes that are associated with neoplastic transformation including p53 and Her2/Neu as well as those involved in metabolism and those which confer multi-drug resistance. The data generated in these cell lines with the protocol described below can be used to evaluate the activity of compounds.
(§2) Cells were grown in RPMI-1640 10% FCS and plated in 96 well micro-titer plates at densities ranging from 5,000 to 40,000 cells/well. The plates were incubated for 24 hours at 37° C., 5% CO2 for 24 hours. Media containing twice the desired final concentration of the compound (5 doses spanning 4 logs) was prepared and 100 μl was added to each well containing 100 μl media plus cells to yield the desired final concentration. The plates were then incubated for an additional 48 hours.
(§3) The effect of the compound on cellular viability was determined with the Sulforhodamine B (SRB) assay which measures total protein. Cells were fixed with cold TCA to a fmal concentration of 10% and incubated at 4° C. for 60 minutes. The supernatant was discarded and the plates were washed five times with water and air-dried. SRB solution at […] in 1% acetic acid was added to each well and the plates were incubated for 10 minutes at room temperature. The plates were washed five times with 1% acetic acid and air-dried. The bound stain was solubilized with 10 mM trizma base and the absorbance was read on a plate reader at […].

ADR-res = test: NCI panel (SRB assay), ADR-res cell line; assay type: cell-based, human; conditions: 48 hours incubation with compound, unit not given
Text: as §1, §2, §3

arrested IMR90 cells = test: Arrested cell assay (serum starvation), IMR90; assay type: cell-based, human; parameters: unit not given here; conditions: serum-starved arrested cells; unit not given
Procedure: Cyclin-dependent kinase (Cdk) activity is required to promote the progression of cells through distinct phases of the cell division cycle. The proliferation of normal, non-transformed, cells in culture requires the presence of growth factors, the removal of which, through serum deprivation, leads to a loss of Cdlc activity and consequent exit from the cell cycle as cells enter the quiescent phase, Go.
IMR90 cells were plated in triplicate for each compound concentration to be tested in MEM-α media containing 10% fetal calf serum at a density of either 2,000 or 20,000 cells per well in 24-well dishes and incubated overnight at 37° C., 5% CO2. The media was removed from the 20,000 cell-per-well dish, cells were washed once with serum-free media, and serum-fiee media was placed on cells. The plates containing cells both in the presence and absence of serum were incubated for 3 additional days.
To ensure that the cells had indeed exited the cell cyde upon serum withdrawal, the percentage of BrdU positive cells, indicative of those progressing through S phase, was determined in each experiment. For the purpose of this experiment, cellular viability was evaluated simultaneously with the use of SNARF-1, a fluorescent substrate of intracellular esterases which are only active in viable cells. Together, the evaluation of BrdU incorporation and SNARF-1 cleavage by flow cytometry provided an assessment of the viability of arrested cells on a single cell basis. For this analysis, the cells were stained with SNARF-1 as follows and then prepared for determination of BrdU incorporation as described above.
HCT-116 and IMR90 cells were plated at the density described below in T25 flasks in serum-containing media (RPMI-1640 or MEM-a with 10% FCS, respectively). After 24 hours of growth, the media was removed and, after washing the cells, replaced with serum-free media. • HCT-116+FCS 5,000 cells • HCT-116−FCS 100,000 cells • IMR90+FCS 100,000 cells • IMR90−FCS 200,000 cells
The IMR90 cells were grown for an additional 3 days and the HCT-116 cells were grown for an additional 6 days before pulsing with BrdU. A 50 μg aliquot of SNARF-1 (Molecular Probes catalog #C1272) was dissolved in 50 μl DMSO at room temperature for 10 minutes and then diluted into 10 ml PBS. The SNARF-1 was further diluted 1:64,000 before 200 μl was added to each tube of cells which had been cultured in the presence or absence of serum and pulsed with BrdU for 20 hours. The cells were incubated at 37° C. for 30 minutes and then washed with 3 ml of PBS.
These cells were then fixed and prepared for the measurement of BrdU incorporation as described above. The percentage of viable (FL-2) and BrdU positive (FL-1) cells was determined on a FACScan flow cytometer.

HCT-116 = test: Calcein AM viability assay, HCT-116; assay type: cell-based, human; conditions: 72-hours incubation, plus 1 mg/ml alpha acidic glycoprotein and 45 mg/ml human serum albumin, read-out: HCT-116 IC50 protein adjusted
Procedure: The potency of Cdk inhibitors, as measured by loss of cellular viability, was determined with the Calcein AM assay (Molecular Probes). Calcein AM is a substrate of intracellular esterases, which is cleaved only in viable cells to generate a fluorescent product that can be quantified with a fluorescent plate reader. The fluorescent signal is proportional to the number of viable cells, and thus loss of signal in response to the exposure of cells to Cdk inhibitors correlates with a loss of viability. This assay distinguishes cell cycle arrest from loss of viability and is thus well suited for the evaluation of Cdk inhibitors.
Cellular IC50's were determined in the human colorectal carcinoma cell line, HCT-116, and the normal human fibroblast, IMR90. Protein adjusted IC50's were also determined in HCT-116. Results are presented in Table 3 below (HCT-116 (viability/protein adjusted) and IMR-90).
HCT-116 or IMR90 cells were recovered from sub-confluent plates by trypsinization and 1,000 or 4,000 cells, respectively, were plated in 24-well dishes and incubated overnight at 37° C., 5% CO2. HCT-116 cells were cultured in RPMI-1640, 10% FCS, and IMR90 cells were cultured in Minimum Essential Medium-alpha, 10% FCS. After overnight incubation to allow.adlierence, the media was aspirated from each well and replaced with media containing a test compound at a concentration from 0 to 250 nM, spanning a total of 7 doses. The plates were returned to the incubator and cultured for an additional 3 days. […] After 72-hours incubation with the test compound, the cells were washed twice with 1×PBS, talking special care to remove all residual buffer.
A 5 μM Calcein AM. solution was prepared by dissolving a 50 μg aliquot of Calcein (Molecular Probes catalog # C3100) in 50 μl DMSO. After the Calcein had completely dissolved (10 minutes at room temperature), it was diluted into 10 ml PBS. Calcein/PBS (0.5 ml) was added to each well. The plates were incubated for 75 minutes at 37° C. (protected from light) and the fluorescent signal was read on a fluorescent plate reader (excitation 485/20 and emission 530/25).

Row | IC50 (HCT-116) | SMILES | NCI panel MG-MID [1] | NCI panel ADR-res (ADR-res) | Arrested cell IMR90 (arrested IMR90 cells)
1 | – | CC(C)c1nn(-c2c(Cl)cccc2Cl)c2nc(Cc3ccc(O)c(CN4CCN(C(C)C)CC4)c3)[nH]c(=O)c12.Cl.Cl [Compound C] | <0.1 µM | <0.1 | >1.0
2 | < 1000 nM | Cl.Cl.Cl.O=C(Nc1cccc2c1C(=O)c1c-2n[nH]c1-c1ccc(OCCN2CCCC2)cc1)NN1CCOCC1 [Compound I] | <0.1 µM | <1 | >1.0
3 | < 1000 nM | CC(C)N1CCN(CCOc2ccc(-c3[nH]nc4c3C(=O)c3c(NC(=O)NN5CCOCC5)cccc3-4)cc2)CC1.Cl.Cl.Cl [E] | <0.1 µM | <1 | >0.1
4 | – | CN1CCN(NC(=O)Nc2cccc3c2C(=O)c2c-3n[nH]c2-c2ccc(OCCN3CCCC3)cc2)CC1.Cl.Cl.Cl [F] | <0.1 µM | <1 | >1.0
5 | < 1000 nM | CCCN(CCOc1ccc(-c2[nH]nc3c2C(=O)c2c(NC(=O)NN4CCOCC4)cccc2-3)cc1)CC1CC1.Cl.Cl.Cl [G] | <0.1 µM | <1 | >0.1
6 | – | Cl.Cl.Cl.O=C(Nc1cccc2c1C(=O)c1c-2n[nH]c1-c1ccc(OCCN(CCO)CCO)cc1)NN1CCOCC1 [H] | <0.1 µM | >10 | >1.0
7 | < 1000 nM | CC(C)N1CCN(Cc2cc(-c3[nH]nc4c3C(=O)c3c(NC(=O)NN5CCOCC5)cccc3-4)ccc2O)CC1.Cl.Cl.Cl.Cl [K] | <0.1 µM | <10 | >1.0
8 | < 1000 nM | CN1CCN(NC(=O)Nc2cccc3c2C(=O)c2c-3n[nH]c2-c2ccc(OCCN3CCOCC3)cc2)CC1.Cl.Cl [Q] | <0.1 µM | <10 | >0.1
